Laboratory results taken from ChEMBL document CHEMBL6071132, “Synthetic approaches and application of representative clinically approved fluorine-enriched anti-cancer medications” (Eur J Med Chem, 2024).
Counter-ions that a name gives are not always drawn.

Assays:
[1] = system: NCI-H358; assay: Antiproliferative activity against human NCI-H358 cells assessed as reduction in cell viability; format: functional, cell-based
[2] = system: MIA PaCa-2; assay: Antiproliferative activity against human MIA PaCa-2 cells assessed as reduction in cell viability; format: functional, cell-based
[3] = biological target: Phosphatidylinositol 4,5-bisphosphate 3-kinase catalytic subunit gamma isoform (Homo sapiens, UniProt P48736); assay: Inhibition of PI3Kgamma (unknown origin)
[4] = system: RPMI-8226; assay: Anticancer activity against human RPMI-8226 cells assessed as reduction in cell growth; format: functional, cell-based
[5] = system: U-266; assay: Antiproliferative activity against human U266B1 cells assessed as reduction in cell viability; format: functional, cell-based
[6] = Inhibition of BTK C481T mutant (unknown origin); design: species or system Homo sapiens
[7] = biological target: Tyrosine-protein kinase BTK (Homo sapiens, UniProt Q06187)
Description: Inhibition of wild type BTK in human CLL cells assessed as

[8] = Anticancer activity against human ME-1 cells; format: functional, cell-based
[9] = system: KARPAS-299; assay: cells; settings: Homo sapiens, KARPAS-299, 72 h
Description: Antiproliferative activity against human KARPAS-299 cells assessed as inhibition of cell growth incubated for 72 hrs by celltiter-glo assay

[10] = Antiproliferative activity against human ROSA KIT WT cells; format: toxicity, cell-based
[11] = biological target: ALK tyrosine kinase receptor (Homo sapiens, UniProt Q9UM73); assay: Inhibition of ALK (unknown origin)
ALK tyrosine kinase receptor, sequence (Q9UM73 whole entry): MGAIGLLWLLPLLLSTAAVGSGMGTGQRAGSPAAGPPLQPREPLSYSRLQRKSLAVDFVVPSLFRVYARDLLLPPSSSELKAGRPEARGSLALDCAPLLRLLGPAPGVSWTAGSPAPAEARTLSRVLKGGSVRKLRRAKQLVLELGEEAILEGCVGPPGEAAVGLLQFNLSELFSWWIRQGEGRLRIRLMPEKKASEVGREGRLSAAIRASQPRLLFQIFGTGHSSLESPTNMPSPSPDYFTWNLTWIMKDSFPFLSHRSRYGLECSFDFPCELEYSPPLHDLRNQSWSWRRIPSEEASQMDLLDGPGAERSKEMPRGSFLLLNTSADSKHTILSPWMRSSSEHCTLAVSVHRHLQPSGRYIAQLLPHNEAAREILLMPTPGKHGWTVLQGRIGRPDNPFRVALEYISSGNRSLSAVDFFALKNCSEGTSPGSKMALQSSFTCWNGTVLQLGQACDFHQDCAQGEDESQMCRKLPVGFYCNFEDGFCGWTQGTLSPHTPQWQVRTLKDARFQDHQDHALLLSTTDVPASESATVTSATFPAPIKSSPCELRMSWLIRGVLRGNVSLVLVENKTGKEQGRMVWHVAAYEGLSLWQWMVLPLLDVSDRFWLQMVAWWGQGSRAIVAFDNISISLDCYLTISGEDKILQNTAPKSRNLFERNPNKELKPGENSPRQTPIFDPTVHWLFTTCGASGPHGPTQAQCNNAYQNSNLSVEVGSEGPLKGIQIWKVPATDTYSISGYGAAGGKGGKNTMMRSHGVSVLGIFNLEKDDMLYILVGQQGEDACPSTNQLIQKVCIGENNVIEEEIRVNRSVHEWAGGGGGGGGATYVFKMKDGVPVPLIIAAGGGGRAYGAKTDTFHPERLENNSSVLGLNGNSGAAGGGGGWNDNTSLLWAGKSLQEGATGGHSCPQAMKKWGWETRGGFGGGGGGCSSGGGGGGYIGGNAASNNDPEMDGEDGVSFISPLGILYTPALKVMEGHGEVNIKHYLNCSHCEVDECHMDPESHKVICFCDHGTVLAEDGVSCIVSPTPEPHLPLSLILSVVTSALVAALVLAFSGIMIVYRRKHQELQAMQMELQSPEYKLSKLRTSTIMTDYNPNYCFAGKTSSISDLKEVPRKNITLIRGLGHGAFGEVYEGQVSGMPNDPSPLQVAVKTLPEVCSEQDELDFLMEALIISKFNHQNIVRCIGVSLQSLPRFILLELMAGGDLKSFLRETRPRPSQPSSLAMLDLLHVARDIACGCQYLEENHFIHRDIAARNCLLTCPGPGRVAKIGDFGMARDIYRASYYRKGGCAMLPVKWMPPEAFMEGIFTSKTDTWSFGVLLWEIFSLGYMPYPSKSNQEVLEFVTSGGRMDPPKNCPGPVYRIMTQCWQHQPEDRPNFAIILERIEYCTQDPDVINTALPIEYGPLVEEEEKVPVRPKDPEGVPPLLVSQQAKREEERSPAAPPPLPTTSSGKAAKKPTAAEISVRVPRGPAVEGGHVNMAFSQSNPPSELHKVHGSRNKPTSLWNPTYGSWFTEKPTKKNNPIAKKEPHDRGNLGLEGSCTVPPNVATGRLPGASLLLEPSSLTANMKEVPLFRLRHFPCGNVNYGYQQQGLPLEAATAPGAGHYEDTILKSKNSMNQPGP

Phosphatidylinositol 4,5-bisphosphate 3-kinase catalytic subunit gamma isoform, sequence (P48736 whole entry, canonical isoform): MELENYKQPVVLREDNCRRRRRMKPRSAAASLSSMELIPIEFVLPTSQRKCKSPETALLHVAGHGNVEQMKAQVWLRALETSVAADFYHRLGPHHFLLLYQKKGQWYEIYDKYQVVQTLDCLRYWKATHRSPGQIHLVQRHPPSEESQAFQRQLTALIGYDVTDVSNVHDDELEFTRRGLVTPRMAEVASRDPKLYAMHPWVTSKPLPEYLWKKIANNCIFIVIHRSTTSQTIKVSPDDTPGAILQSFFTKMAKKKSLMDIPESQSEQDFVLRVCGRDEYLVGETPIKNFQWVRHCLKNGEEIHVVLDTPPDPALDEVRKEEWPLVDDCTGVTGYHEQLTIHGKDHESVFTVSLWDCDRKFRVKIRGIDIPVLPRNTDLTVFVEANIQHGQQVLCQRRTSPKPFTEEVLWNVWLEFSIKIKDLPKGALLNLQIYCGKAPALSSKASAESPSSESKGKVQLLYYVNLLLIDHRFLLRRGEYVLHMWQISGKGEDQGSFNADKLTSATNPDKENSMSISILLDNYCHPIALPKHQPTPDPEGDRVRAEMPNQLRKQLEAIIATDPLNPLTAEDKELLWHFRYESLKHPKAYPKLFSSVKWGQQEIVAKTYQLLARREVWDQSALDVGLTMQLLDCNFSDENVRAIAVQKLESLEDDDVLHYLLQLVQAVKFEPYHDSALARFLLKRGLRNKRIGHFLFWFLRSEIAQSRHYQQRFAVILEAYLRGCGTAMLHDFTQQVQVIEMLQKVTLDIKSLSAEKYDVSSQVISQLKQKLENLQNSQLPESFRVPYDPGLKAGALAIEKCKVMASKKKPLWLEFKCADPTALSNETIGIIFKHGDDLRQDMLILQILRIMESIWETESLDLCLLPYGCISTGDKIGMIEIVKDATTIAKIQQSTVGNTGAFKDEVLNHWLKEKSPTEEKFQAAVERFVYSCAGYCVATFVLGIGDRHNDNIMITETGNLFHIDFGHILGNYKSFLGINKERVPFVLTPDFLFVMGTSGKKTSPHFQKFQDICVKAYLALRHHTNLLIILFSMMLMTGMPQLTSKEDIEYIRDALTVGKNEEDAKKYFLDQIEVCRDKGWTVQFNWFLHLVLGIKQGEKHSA
Tyrosine-protein kinase BTK, sequence (Q06187 whole entry): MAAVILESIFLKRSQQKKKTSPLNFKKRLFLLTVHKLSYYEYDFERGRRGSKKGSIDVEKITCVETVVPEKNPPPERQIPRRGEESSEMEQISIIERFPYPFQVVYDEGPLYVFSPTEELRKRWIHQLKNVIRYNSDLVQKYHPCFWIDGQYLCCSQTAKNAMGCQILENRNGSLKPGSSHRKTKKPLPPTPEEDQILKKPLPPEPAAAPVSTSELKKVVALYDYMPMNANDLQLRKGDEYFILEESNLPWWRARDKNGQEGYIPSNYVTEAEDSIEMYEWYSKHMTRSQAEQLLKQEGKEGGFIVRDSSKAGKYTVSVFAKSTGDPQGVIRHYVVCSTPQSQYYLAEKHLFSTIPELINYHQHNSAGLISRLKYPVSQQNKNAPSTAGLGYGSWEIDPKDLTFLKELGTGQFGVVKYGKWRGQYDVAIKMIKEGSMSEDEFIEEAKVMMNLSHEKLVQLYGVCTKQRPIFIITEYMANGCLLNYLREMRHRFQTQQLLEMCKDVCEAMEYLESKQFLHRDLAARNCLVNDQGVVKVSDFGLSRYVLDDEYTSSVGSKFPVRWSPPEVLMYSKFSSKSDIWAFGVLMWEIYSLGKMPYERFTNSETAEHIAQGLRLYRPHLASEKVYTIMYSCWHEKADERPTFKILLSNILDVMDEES

With `C=CC(=O)N1CCN(c2nc(=O)n(-c3c(C)ccnc3C(C)C)c3nc(-c4c(O)cccc4F)c(F)cc23)[C@@H](C)C1` [SOTORASIB] the IC50 [1] was 6 nM and the IC50 [2] was 9 nM.

Work on `CCC(=O)N1CC[C@H](Nc2ncnc3c2CN(c2cnc(OC)c(C(F)(F)F)c2)CC3)C1` [LENIOLISIB] yielded an IC50 [3] of 2.23 nM.

Work on `CCOC(=O)[C@H](Cc1ccc(F)cc1)NC(=O)[C@@H](N)Cc1ccc(N(CCCl)CCCl)cc1` [MELPHALAN FLUFENAMIDE HYDROCHLORIDE] yielded an IC50 [4] of 4 nM and an IC50 [5] of 6 nM.

With `COc1ccc(F)cc1C(=O)NCc1ccc(-c2nn([C@@H](C)C(F)(F)F)c(N)c2C(N)=O)cc1` [PIRTOBRUTINIB] the IC50 [6] was 7.23 nM and the IC50 [7] was 3.68 nM.

`O=C(/C=C\n1cnc(-c2cc(C(F)(F)F)cc(C(F)(F)F)c2)n1)NNc1cnccn1` [SELINEXOR] gave an IC50 [8] of 34 nM.

With `CN1CCN(c2ccc(C(=O)Nc3n[nH]c4ccc(Cc5cccc(F)c5)cc34)c(NC3CCOCC3)c2)CC1` the IC50 [9] was 10 nM.

Work on `CCn1c(=O)c(-c2cc(NC(=O)Nc3ccccc3)c(F)cc2Br)cc2cnc(NC)cc21` [RIPRETINIB] yielded an IC50 [10] of 34 nM.

`CN1CCN(c2ccc(C(=O)Nc3n[nH]c4ccc(Cc5ccccc5)cc34)c(NC3CCOCC3)c2)CC1` showed an IC50 [9] of 180 nM and an IC50 [11] of 100 nM.
